Measurements taken from patent US8680269B2, “Pesticidal compositions” (Dow AgroSciences, LLC., priority 2009, dated 2014).

Legend:
Assay type in all cases: in vivo
[1] = system: corn earworm (CEW; Helicoverpa zea); assay: Insecticidal test for corn earworm, 128-well diet tray assay; conditions: 144 h, 50 μg/cm2 on artificial diet, second instar larvae, six days at 25° C.
Experimental: (§1) Bioassays on corn earworm (CEW; Helicoverpa zea: Lepidoptera) were conducted using a 128-well diet tray assay. Three to five second instar CEW larvae were placed in each well (3 mL) of the diet tray that had been previously filled with 1 mL of artificial diet to which 50 μg/cm^2 of the test compound (dissolved in 50 μL of 90:10 acetone-water mixture) had been applied (to each of eight wells) and then allowed to dry. Trays were covered with a clear self-adhesive cover, and held at 25° C., 14:10 light-dark for six days. Percent mortality was recorded for the larvae in each well; activity in the eight wells was then averaged.

[2] = system: beet armyworm (BAW; Spodoptera exigua); assay: Insecticidal test for beet armyworm, 128-well diet tray assay; conditions: 144 h, 50 μg/cm2 on artificial diet, second instar larvae, six days at 25° C.
Experimental: as §1, with “beet armyworm (BAW; Spodoptera exigua:” for “corn earworm (CEW; Helicoverpa zea:”, “BAW” for “CEW”

[3] = system: green peach aphid (Myzus persicae); assay: Insecticidal test for green peach aphid in foliar spray assay; conditions: 72 h, 200 ppm foliar spray on cabbage seedlings, graded after three days, Abbott corrected % control, read-out: Mortality GPA 200 ppm
Experimental: Cabbage seedlings grown in 3-inch pots, with 2-3 small (3-5 cm) true leaves, were used as test substrate. The seedlings were infested with 20-50 green peach aphids (wingless adult and nymph) one day prior to chemical application. Four pots with individual seedlings were used for each treatment. Compounds (2 mg) were dissolved in 2 mL of acetone/methanol (1:1) solvent, forming stock solutions of 1000 ppm. The stock solutions were diluted 5× with 0.025% Tween 20 in H2O to obtain the test solution at 200 ppm. A hand-held Devilbiss sprayer was used for spraying a solution to both sides of cabbage leaves until runoff. Reference plants (solvent check) were sprayed with the diluent only. Treated plants were held in a holding room for three days at approximately 25° C. and 40% relative humidity (RH) prior to grading. Evaluation was conducted by counting the number of live aphids per plant under a microscope. Insecticidal activity data, measured by using Abbott's correction formula, are presented in Table 2: Corrected % Control=100*(X−Y)/X • where X=No. of live aphids on solvent check plants • Y=No. of live aphids on treated plants

Compound	mortality at 50 µg/cm2 [1]	mortality at 50 µg/cm2 [2]	mortality at 200 ppm [3]
CN(C)c1ccc(CNC(=S)N/N=C/c2ccc(-c3ncn(-c4ccc(OC(F)(F)F)cc4)n3)cc2)cc1 [Compound 37]	50 to 100%	50 to 100%	< 80%
COc1cc(C)c(NC(=S)N/N=C/c2ccc(C3=NN(c4ccc(OC(F)(F)F)cc4)C(C(N)=O)C3)cc2)c(C)c1 (stereo not drawn) [Compound 133]	50 to 100%	50 to 100%	< 80%
CCOc1ccc(NC(=S)N/N=C/c2ccc(-c3ncn(-c4ccc(OC(F)(F)F)cc4)n3)cc2)cc1 [Compound 58]	50 to 100%	50 to 100%	< 80%
FC(F)(F)Oc1ccc(-n2cnc(-c3ccc(/C=N/NC(=S)NCc4ccco4)cc3)n2)cc1 [Compound 27]	50 to 100%	50 to 100%	< 80%
CC(=O)Nc1ccc(NC(=S)N/N=C/c2ccc(-c3ncn(-c4ccc(OC(F)(F)F)cc4)n3)cc2)cc1 [Compound 41]	50 to 100%	50 to 100%	< 80%
COc1ccc(NC(=S)N/N=C/c2ccc(-c3ncn(-c4ccc(OC(F)(F)F)cc4)n3)cc2)c(F)c1 [Compound 50]	50 to 100%	50 to 100%	< 80%
CCc1ccccc1NC(=S)N/N=C/c1ccc(-c2ncn(-c3ccc(OC(F)(F)F)cc3)n2)cc1 [Compound 62]	50 to 100%	50 to 100%	< 80%
O=C(N/N=C/c1ccc(-c2ncn(-c3ccc(OC(F)(F)F)cc3)n2)cc1)Nc1ccc(F)cc1 [Compound 35]	< 50%	< 50%	< 80%
CN(C)c1ccc(NC(=S)N/N=C/c2ccc(-c3ncn(-c4ccc(OC(F)(F)C(F)(F)F)cc4)n3)cc2)cc1 [Compound 36]	50 to 100%	50 to 100%	< 80%
CCCCCNC(=S)N/N=C/c1ccc(-c2ncn(-c3ccc(OC(F)(F)F)cc3)n2)cc1 [Compound 24]	< 50%	50 to 100%	< 80%
FC(F)(F)Oc1ccc(-n2cnc(-c3ccc(/C=N/NC(=S)NCCOc4ccccn4)cc3)n2)cc1 [Compound 17]	50 to 100%	50 to 100%	< 80%
FC(F)(F)Oc1ccc(-n2cnc(-c3ccc(/C=N/NC(=S)Nc4c(Cl)cccc4Cl)cc3)n2)cc1 [Compound 29]	50 to 100%	50 to 100%	< 80%
N#Cc1ccccc1NC(=S)N/N=C/c1ccc(-c2ncn(-c3ccc(OC(F)(F)F)cc3)n2)cc1 [Compound 53]	50 to 100%	50 to 100%	< 80%
O=C(NC(=S)N/N=C/c1ccc(-c2ncn(-c3ccc(OC(F)(F)F)cc3)n2)cc1)c1ccc([N+](=O)[O-])cc1 [Compound 31]	< 50%	< 50%	< 80%
COc1cc(C)c(NC(=S)N/N=C/c2ccc(-c3ncn(-c4ccc(OC(F)(F)C(F)(F)F)cc4)n3)cc2)c(C)c1 [Compound 128]	50 to 100%	50 to 100%	< 80%
COc1cc(C)c(NC(=S)N/N=C(\C)c2ccc(-c3ncn(-c4ccc(OC(F)(F)F)cc4)n3)cc2)c(C)c1 [Compound 125]	50 to 100%	50 to 100%	< 80%
FC(F)(F)Oc1ccc(-n2cnc(-c3ccc(/C=N/NC(=S)NCCN4CCOCC4)cc3)n2)cc1 [Compound 16]	50 to 100%	50 to 100%	< 80%
CC(=O)c1ccc(NC(=S)N/N=C/c2ccc(-c3ncn(-c4ccc(OC(F)(F)F)cc4)n3)cc2)cc1 [Compound 33]	50 to 100%	50 to 100%	< 80%
COc1ccc(NC(=S)N/N=C(\C)c2ccc(-c3ncn(-c4ccc(OC(F)(F)F)cc4)n3)cc2)c(C)c1 [Compound 109]	50 to 100%	50 to 100%	< 80%
COC(=O)C1CC(c2ccc(/C=N/NC(=S)Nc3c(C)cc(OC)cc3C)cc2)=NN1c1ccc(OC(F)(F)F)cc1 (stereo not drawn) [Compound 132]	50 to 100%	50 to 100%	< 80%

Compound	mortality at 50 µg/cm2 [1]	mortality at 50 µg/cm2 [2]	mortality at 200 ppm [3]
Cc1ccccc1NC(=S)N/N=C/c1ccc(-c2ncn(-c3ccc(OC(F)(F)F)cc3)n2)cc1 [Compound 71]	50 to 100%	50 to 100%	< 80%
FC(F)(F)Oc1ccc(-n2cnc(-c3ccc(/C=N/NC(=S)Nc4ccc(Cl)cc4Cl)cc3)n2)cc1 [Compound 55]	< 50%	< 50%	< 80%
FC(F)(F)Oc1ccc(-n2cnc(-c3ccc(/C=N/NC(=S)Nc4ccccc4Cl)cc3)n2)cc1 [Compound 54]	< 50%	< 50%	< 80%
FC(F)(F)Oc1ccc(-n2cnc(-c3ccc(/C=N/NC(=S)Nc4ccccc4)cc3)n2)cc1 [Compound 14]	50 to 100%	50 to 100%	< 80%
COCCNC(=S)N/N=C/c1ccc(-c2ncn(-c3ccc(OC(F)(F)F)cc3)n2)cc1 [Compound 18]	50 to 100%	50 to 100%	< 80%
FC(F)(F)Oc1ccc(-n2cnc(-c3ccc(/C=N/NC(=S)NC4CC4)cc3)n2)cc1 [Compound 23]	50 to 100%	50 to 100%	< 80%
CN(C)C(=S)N/N=C/c1ccc(-c2ncn(-c3ccc(C(F)(F)F)cc3)n2)cc1 [Compound 8]	50 to 100%	50 to 100%	< 80%
FC(F)(F)Oc1ccc(-n2cnc(-c3ccc(/C=N/NC(=S)NCc4ccccc4)cc3)n2)cc1 [Compound 3, N-benzyl-2-(4-(1-(4-(trifluoromethoxy)phenyl)-1H-1,2,4-triazol-3-yl)benzylidene)hydrazinecarbothioamide]	< 50%	50 to 100%	< 80%
FC(F)(F)Oc1ccc(-n2cnc(-c3ccc(/C=N/NC(=S)Nc4c(Cl)cccc4Cl)cc3)c2)cc1 [Compound 68]	50 to 100%	50 to 100%	< 80%
O=C(c1ccccc1NC(=S)N/N=C/c1ccc(-c2ncn(-c3ccc(OC(F)(F)F)cc3)n2)cc1)C(F)(F)F [Compound 61]	50 to 100%	50 to 100%	< 80%
FC(F)(F)Oc1ccc(-n2cnc(-c3ccc(/C=N/NC(=S)NCCc4ccccn4)cc3)n2)cc1 [Compound 6]	50 to 100%	50 to 100%	< 80%
CN(C)CCCNC(=S)N/N=C/c1ccc(-c2ncn(-c3ccc(OC(F)(F)F)cc3)n2)cc1 [Compound 19]	< 50%	< 50%	< 80%
Fc1ccccc1CNC(=S)N/N=C/c1ccc(-c2ncn(-c3ccc(OC(F)(F)F)cc3)n2)cc1 [Compound 22]	50 to 100%	50 to 100%	< 80%
COc1ccc(NC(=S)N/N=C/c2ccc(-c3ncn(-c4ccc(OC(F)(F)F)cc4)n3)cc2)c(C(F)(F)F)c1 [Compound 51]	50 to 100%	50 to 100%	< 80%
Nc1ccc(NC(=S)N/N=C/c2ccc(-c3ncn(-c4ccc(OC(F)(F)F)cc4)n3)cc2)cc1 [Compound 81]	50 to 100%	50 to 100%	< 80%
CCc1cccc(CC)c1NC(=S)N/N=C/c1ccc(-c2ncn(-c3ccc(OC(F)(F)F)cc3)n2)cc1 [Compound 76]	50 to 100%	50 to 100%	< 80%
CN(C)c1cccc(CNC(=S)N/N=C/c2ccc(-c3ncn(-c4ccc(OC(F)(F)F)cc4)n3)cc2)c1 [Compound 38]	50 to 100%	50 to 100%	< 80%
FC(F)(F)Oc1ccc(-n2cnc(-c3ccc(/C=N/NC(=S)NCCC4=CCCCC4)cc3)n2)cc1 [Compound 20]	50 to 100%	50 to 100%	< 80%
Fc1ccc(NC(=S)N/N=C/c2ccc(-c3ncn(-c4ccc(OC(F)(F)F)cc4)n3)cc2)cc1 [Compound 10]	50 to 100%	50 to 100%	< 80%
